pEC50: −log10 of the molar value.
Target: T1, human GPR119 (Homo sapiens, UniProt Q8TDV5)
T1 sequence (Q8TDV5 1-308 limits assumed): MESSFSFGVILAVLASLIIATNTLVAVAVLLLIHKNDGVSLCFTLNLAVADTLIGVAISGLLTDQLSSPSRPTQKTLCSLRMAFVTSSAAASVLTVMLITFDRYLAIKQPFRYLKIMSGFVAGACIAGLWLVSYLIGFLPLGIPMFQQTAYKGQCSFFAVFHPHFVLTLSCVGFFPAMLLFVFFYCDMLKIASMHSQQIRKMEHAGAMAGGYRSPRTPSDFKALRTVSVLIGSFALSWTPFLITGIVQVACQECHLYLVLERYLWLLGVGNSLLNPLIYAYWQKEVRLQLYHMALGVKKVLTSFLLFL
Assay: Measurement of GPR119 signaling by cAMP (LANCE cAMP kit or HTRF) in HEK293 cells transfected with human GPR119
Format: cell-based
Conditions: agonist cAMP response in HEK293 cells stably transfected with human GPR119; patent does not say which of the two cAMP formats (LANCE or HTRF)
Summary of the method: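 LANCE TR-FRET cAMP readout; detection with Eu-SA/biotin-cAMP tracer for 3 h, signal converted to cAMP via standard curve, duplicates, 4-parameter fit vs DMSO basal and internal agonist maximum.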

| SMILES | pEC50 |
| --- | --- |
| CN(CCCO)C(=O)Cc1ccc(OCC[C@@H]2C[C@@H]2C2CCN(c3ncc(Cl)cn3)CC2)cc1F [Example 153] | 8.80 |
| COCc1cnc(N2CCC([C@H]3C[C@H]3CCOc3cc(F)c(CC(=O)N(C)C4COC4)c(F)c3)CC2)nc1 [Example 226] | 9.39 |
| Cc1cc(OCC[C@@H]2C[C@@H]2C2CCN(c3ncc(Cl)cn3)CC2)ccc1CC(=O)N(C)C [Example 18, 2-[4-(2-{(1S,2R)-2-[1-(5-chloropyrimidin-2-yl)piperidin-4-yl]cyclopropyl}ethoxy)-2-methylphenyl]-N,N-dimethylacetamide] | 8.77 |
| COCc1cnc(N2CCC([C@H]3C[C@H]3CCOc3ccc(CC(=O)N4CC(C)C4)cc3)CC2)nc1 [Example 14] | 8.26 |
| COCc1cnc(N2CCC([C@H]3C[C@H]3CCOc3ccc(CC(=O)N4CCC4)cc3F)CC2)nc1 [Example 251] | 8.26 |
| Cc1cnc(Cc2ccc(OCC[C@@H]3C[C@@H]3C3CCN(c4ncc(Cl)cn4)CC3)cc2F)o1 [Example 243, 5-chloro-2-{4-[(1R,2S)-2-(2-{3-fluoro-4-[(5-methyl-1,3-oxazol-2-yl)methyl]phenoxy}ethyl)cyclopropyl]piperidin-1-yl}pyrimidine] | 8.60 |
| COc1cnc(N2CCC([C@H]3C[C@H]3CCOc3cc(F)c(CC(=O)N4CC(C)(O)C4)c(F)c3)CC2)nc1 [Example 212] | 9.06 |
| CN(CC1CCOCC1)C(=O)Cc1ccc(OCC[C@@H]2C[C@@H]2C2CCN(c3ncc(Cl)cn3)CC2)cc1F [Example 157] | 8.62 |
| COCc1cnc(N2CCC([C@H]3C[C@H]3CCOc3ccc(CC(=O)N4CCc5nc(C)oc5C4)c(F)c3)CC2)nc1 [Example 58] | 8.92 |
| O=C(Cc1ccc(OCC[C@@H]2C[C@@H]2C2CCN(c3ncc(Cl)cn3)CC2)cc1F)N1CCC(F)(F)C1 [Example 72] | 9.30 |
| COCc1cnc(N2CCC([C@H]3C[C@H]3CCOc3cc(F)c(CC(=O)N(C)C)c(F)c3)CC2)nc1 [Example 224] | 9.40 |
| COC[C@@H]1CCCN1C(=O)Cc1ccc(OCC[C@@H]2C[C@@H]2C2CCN(c3ncc(Cl)cn3)CC2)cc1F [Example 78] | 8.42 |
| COCc1cnc(N2CCC([C@H]3CC3CCOc3cc(F)c(CCO)c(F)c3)CC2)nc1 (stereo in doubt) [Example 240, 2-{2,6-Difluoro-4-[2-((1R,2R)-2-{1-[5-(methoxymethyl)pyrimidin-2-yl]piperidin-4-yl}cyclopropyl)ethoxy]phenyl}ethanol] | 8.14 |
| CN(C(=O)Cc1ccc(OCC[C@@H]2C[C@@H]2C2CCN(c3ncc(Cl)cn3)CC2)cc1F)C1CCOC1 (stereo partly shown) [Example 154] | 9.39 |
| COc1cnc(N2CCC([C@H]3C[C@H]3CCOc3cc(F)c(CC(=O)N4CCC4)c(F)c3)CC2)nc1 [Example 214] | 9.70 |
| C[C@H](CO)NC(=O)Cc1ccc(OCC[C@@H]2C[C@@H]2C2CCN(c3ncc(Cl)cn3)CC2)cc1F [Example 113] | 8.41 |
| COc1cnc(N2CCC([C@H]3C[C@H]3CCOc3cc(F)c(CC(=O)N4CC(F)(F)C4)c(F)c3)CC2)nc1 [Example 217] | 10.15 |
| O=C(Cc1ccc(OCC[C@@H]2C[C@@H]2C2CCN(c3ncc(Cl)cn3)CC2)cc1F)NC1(C(F)(F)F)CC1 [Example 87] | 8.44 |
| COc1cnc(N2CCC([C@H]3C[C@H]3CCOc3cc(F)c(CC(=O)N4CC(O)C4)c(F)c3)CC2)nc1 [Example 210, 2-[2,6-difluoro-4-(2-{(1S,2R)-2-[1-(5-methoxypyrimidin-2-yl)piperidin-4-yl]cyclopropyl}ethoxy)phenyl]-1-(3-hydroxyazetidin-1-yl)ethanone] | 9.23 |
| CCc1cnc(N2CCC([C@H]3C[C@H]3CCOc3ccc(CC(=O)NC4CC4)c(F)c3)CC2)nc1 [Example 208] | 8.72 |
| COCc1cnc(N2CCC([C@H]3C[C@H]3CCOc3ccc(CC(=O)N4CC(OC)C4)cc3)CC2)nc1 [Example 8] | 8.54 |
| O=C(Cc1ccc(OCC[C@@H]2C[C@@H]2C2CCN(c3ncc(Cl)cn3)CC2)cc1F)N1CCc2oc(C3CC3)nc2C1 [Example 143] | 8.33 |
| COCc1cnc(N2CCC([C@H]3C[C@H]3CCOc3ccc(Cc4nnco4)c(F)c3)CC2)nc1 [Example 246] | 8.11 |
| COCc1cnc(N2CCC([C@H]3C[C@H]3CCOc3cc(F)c(CC(=O)N4CC(C)(O)C4)c(F)c3)CC2)nc1 [Example 221] | 8.68 |
| O=C(Cc1ccc(OCC[C@@H]2C[C@@H]2C2CCN(c3ncc(Cl)cn3)CC2)cc1F)NC1CCC(F)(F)C1 (stereo partly shown) [Example 95] | 8.64 |
| CN(CC(N)=O)C(=O)Cc1ccc(OCC[C@@H]2C[C@@H]2C2CCN(c3ncc(Cl)cn3)CC2)cc1F [Example 159] | 8.43 |

| SMILES | pEC50 |
| --- | --- |
| COC(=O)C1CN1C(=O)Cc1ccc(OCC[C@@H]2C[C@@H]2C2CCN(c3ncc(Cl)cn3)CC2)cc1F (stereo partly shown) [Example 107] | 8.05 |
| O=C(Cc1ccc(OCC[C@@H]2C[C@@H]2C2CCN(c3ncc(Cl)cn3)CC2)cc1F)N1CCc2ncccc2C1 [Example 198] | 8.89 |
| COCc1cnc(N2CCC([C@H]3C[C@H]3CCOc3ccc(Cc4nncs4)c(F)c3)CC2)nc1 [Example 248, 2-[4-((1R,2S)-2-{2-[3-fluoro-4-(1,3,4-thiadiazol-2-ylmethyl)phenoxy]ethyl}cyclopropyl)piperidin-1-yl]-5-(methoxymethyl)pyrimidine] | 8.38 |
| O=C(Cc1ccc(OCC[C@@H]2C[C@@H]2C2CCN(c3ncc(Cl)cn3)CC2)cc1F)N1Cc2nc(-c3ccccc3)[nH]c2C1 [Example 197] | 8.17 |
| CC1CCN(C(=O)Cc2ccc(OCC[C@@H]3C[C@@H]3C3CCN(c4ncc(Cl)cn4)CC3)cc2F)CC1 [Example 99] | 8.40 |
| CC(C)(O)Cn1cc2c(n1)CN(C(=O)Cc1ccc(OCC[C@@H]3C[C@@H]3C3CCN(c4ncc(Cl)cn4)CC3)cc1F)C2 [Example 124] | 8.49 |
| O=C(Cc1ccc(OCC[C@@H]2C[C@@H]2C2CCN(c3ncc(Cl)cn3)CC2)cc1F)N1CC(n2cccn2)C1 [Example 119] | 9.09 |
| CC1(C)CCN1C(=O)Cc1ccc(OCC[C@@H]2C[C@@H]2C2CCN(c3ncc(Cl)cn3)CC2)cc1F [Example 97] | 8.49 |
| CN(C)C(=O)Cc1ccc(OCC[C@@H]2C[C@@H]2C2CCN(c3ncc(Cl)cn3)CC2)cc1F [Example 81] | 9.20 |
| CC(CO)NC(=O)Cc1ccc(OCC[C@@H]2C[C@@H]2C2CCN(c3ncc(Cl)cn3)CC2)cc1F (stereo partly shown) [Example 116] | 8.04 |
| CC1(C)CN(C(=O)Cc2ccc(OCC[C@@H]3C[C@@H]3C3CCN(c4ncc(Cl)cn4)CC3)cc2F)C1 [Example 70] | 9.10 |
| O=C(Cc1ccc(OCC[C@@H]2C[C@@H]2C2CCN(c3ncc(Cl)cn3)CC2)cc1F)N1Cc2cn[nH]c2C1 [Example 120] | 9.00 |
| O=C(Cc1ccc(OCC[C@@H]2C[C@@H]2C2CCN(c3ncc(Cl)cn3)CC2)cc1F)N1CCc2cn[nH]c2C1 [Example 182] | 8.62 |
| O=C(Cc1ccc(OCC[C@@H]2C[C@@H]2C2CCN(c3ncc(Cl)cn3)CC2)cc1F)NCC1CCCCC1 [Example 112] | 8.21 |
| COCCN(C)C(=O)Cc1ccc(OCC[C@@H]2C[C@@H]2C2CCN(c3ncc(Cl)cn3)CC2)cc1F [Example 104] | 8.89 |
| O=C(Cc1ccc(OCC[C@@H]2C[C@@H]2C2CCN(c3ncc(Cl)cn3)CC2)cc1F)N1CCCc2cnccc21 [Example 194] | 8.44 |
| O=C(c1cn2c(n1)CN(C(=O)Cc1ccc(OCC[C@@H]3C[C@@H]3C3CCN(c4ncc(Cl)cn4)CC3)cc1F)CC2)C1CC1 [Example 144] | 8.14 |
| CCOCc1cnc(N2CCC([C@H]3C[C@H]3CCOc3ccc(CC(=O)N4CCC4)c(F)c3)CC2)nc1 [Example 200] | 9.10 |
| CCC(CO)NC(=O)Cc1ccc(OCC[C@@H]2C[C@@H]2C2CCN(c3ncc(Cl)cn3)CC2)cc1F (stereo partly shown) [Example 114] | 8.43 |
| COCc1cnc(N2CCC([C@H]3C[C@H]3CCOc3ccc(CC(=O)N4CCOCC4)cc3)CC2)nc1 [Example 10] | 8.08 |
| O=C(Cc1ccc(OCC[C@@H]2C[C@@H]2C2CCN(c3ncc(Cl)cn3)CC2)cc1F)N1CCc2c(C(F)(F)F)n[nH]c2C1 [Example 147] | 8.54 |
| COCc1cnc(N2CCC([C@H]3C[C@H]3CCOc3ccc(CC(=O)N4CC(O)C4)cc3)CC2)nc1 [Example 7, 1-(3-hydroxyazetidin-1-yl)-2-(4-{2-[(1S,2R)-2-{1-[5-(methoxymethyl)pyrimidin-2-yl]piperidin-4-yl}cyclopropyl]ethoxy}phenyl)ethanone] | 8.11 |
| CC(C)CCN(C)C(=O)Cc1ccc(OCC[C@@H]2C[C@@H]2C2CCN(c3ncc(Cl)cn3)CC2)cc1F [Example 109] | 7.99 |
| CC1(O)CN(C(=O)Cc2ccc(OCC[C@@H]3C[C@@H]3C3CCN(c4ncc(Cl)cn4)CC3)cc2F)C1 [Example 66] | 9.40 |
| COCc1cnc(N2CCC([C@H]3C[C@H]3CCOc3ccc(CC(=O)N4CCc5nn[nH]c5C4)c(F)c3)CC2)nc1 [Example 57] | 8.52 |
| Cc1nc2c(s1)CN(C(=O)Cc1ccc(OCC[C@@H]3C[C@@H]3C3CCN(c4ncc(Cl)cn4)CC3)cc1F)CC2 [Example 176] | 9.11 |

— patent US9018224B2, “Substituted cyclopropyl compounds useful as GPR119 agonists” (Merck Sharp & Dohme Corp., priority 2011, dated 2015)
